Calls of active or inactive are those of the source. The calls are words filed in the database; no cut-off is given here.

For data set [1], the system named is Mus musculus. Kind of data set: Toxicity in Plasmodium berghei ANKA infected Swiss mice (Mus musculus) assessed as discomfort at 180 mg/kg, intraperitoneally administered as single dose 64 hrs after infection. As to conditions: in vivo, ip. The data set is classed as organism-based. On the set-up: dose 180 mg/kg, route intraperitoneal.
A short description of data set [2]: Half life in healthy mouse at 50 mg/kg. As to conditions: in vivo. More on the design: dose 50 mg/kg. The class given is ADME, organism-based.
Data set [3] concerns Plasmodium berghei. The experiment in a line: Antimalarial activity as parasitaemia against Plasmodium berghei ANKA infected Swiss mice (Mus musculus) at 90 mg/kg intraperitoneal dose 65, 76 and 88 hrs post infection (Rvb=2.5%+/-0.5%). The data set is classed as functional.
Data set [4] deals with Plasmodium berghei. Kind of data set: Antimalarial activity as reduced parasitaemia against Plasmodium berghei ANKA infected Swiss mice (Mus musculus) at 90 mg/kg intraperitoneal dose at 65, 76 and 88 hrs post infection. The data set is classed as functional, organism-based. On the set-up: dose 90 mg/kg.
Data set [5] deals with Plasmodium berghei. The experiment in a line: Antimalarial activity as reduced parasitaemia against Plasmodium berghei ANKA infected Swiss mice (Mus musculus) up to 180 mg/kg intraperitoneal single dose 64 hrs post infection. More on the design: dose 180 mg/kg. The class given is functional, organism-based.
Data set [6] deals with Mus musculus. The experiment in a line: Toxicity in Plasmodium berghei ANKA infected Swiss mice (Mus musculus) assessed as adverse effect at 90 mg/kg, intraperitoneally administered at 1,12 and 24 hrs after 64 hrs postinfection. The data set is classed as organism-based. More on the design: dose 90 mg/kg, route intraperitoneal. As to conditions: in vivo, ip.
The nature of data set [7]: Half life in Plasmodium falciparum infected human dosed every 24 hrs after 48 hrs of infection. The class given is ADME, organism-based. As to conditions: in vivo.
In data set [8] the test system is Plasmodium berghei. Kind of data set: Antimalarial activity as parasitaemia nadir against Plasmodium berghei ANKA infected Swiss mice (Mus musculus) at 90 mg/kg intraperitoneal dose 65, 76 and 88 hrs post infection. The class given is functional.
In data set [9] the test system is Mus musculus. The experiment in a line: Toxicity in Plasmodium berghei ANKA infected Swiss mice (Mus musculus) assessed as median time for adverse effect at 90 mg/kg, intraperitoneally administered at 1,12 and 24 hrs after 64 hrs postinfection. As to conditions: in vivo, ip. The data set is classed as organism-based. On the set-up: dose 90 mg/kg, route intraperitoneal.

Data set [10] is described as follows: Half life in Plasmodium falciparum infected human at 200 mg/day, perorally after 7 days. As to conditions: in vivo, po. The class given is ADME, organism-based.
The subject of data set [11] is Mus musculus. The experiment in a line: Toxicity in Plasmodium berghei ANKA infected Swiss mice (Mus musculus) assessed as median time for adverse effect at 30 mg/kg, intraperitoneally administered as single dose 64 hrs after infection measured after 24 hrs. The class given is organism-based. More on the design: dose 30 mg/kg, route intraperitoneal. To be noted: in vivo, ip.

The test system of data set [12] is Plasmodium berghei. The experiment in a line: Antimalarial activity as reduced parasitaemia after 24hrs against Plasmodium berghei ANKA infected Swiss mice (Mus musculus) at 30 mg/kg intraperitoneal single dose 64 hrs post infection. The class given is functional, organism-based. On the set-up: dose 30 mg/kg.
The subject of data set [13] is Plasmodium berghei. Kind of data set: Antimalarial activity as parasitaemia nadir after 24 hrs against Plasmodium berghei ANKA infected Swiss mice (Mus musculus) at 30 mg/kg intraperitoneal single dose 64 hrs post infection. The class given is functional.
The subject of data set [14] is Plasmodium berghei. The experiment in a line: Antimalarial activity as parasitaemia against Plasmodium berghei ANKA infected Swiss mice (Mus musculus) at 30 mg/kg intraperitoneal single dose 64 hrs post infection (Rvb=2.5%+/-0.5%). The class given is functional.

Take `C[C@H]1c2cccc(O)c2C(=O)C2=C(O)[C@]3(O)C(=O)C(C(N)=O)=C(O)[C@@H](N(C)C)[C@@H]3[C@@H](O)[C@@H]21.O` [DOXYCYCLINE]: the Activity entry in the data set with Mus musculus [1] is listed as “Toxic”; with Plasmodium berghei [3], 3%; in the data set with Mus musculus [6], “Non-toxic”; in the data set with Plasmodium berghei [8] it was 0.06%. Also, the figures for the half-life in data set [2], in data set [7] and in data set [10] were 2.8 h, 10.5 h and 14 h, respectively. For the same compound, the result in the data set on Plasmodium berghei [4] was Active. The outcome in the data set with Plasmodium berghei [5] was inactive. For the same compound, in the data set on Mus musculus [9], the Time turned out to be 6 days.
On to `C[C@H]1[C@@H](O)O[C@@H]2O[C@@]3(C)CC[C@H]4[C@H](C)CC[C@@H]1[C@@]24OO3` [ARTENIMOL], for which the Activity came to 1 days in the data set on Mus musculus [11], 0.53% with Plasmodium berghei [13] and 2.6% with Plasmodium berghei [14]. Further, in the data set on Plasmodium berghei [12], the outcome was Active.

(Values after ChEMBL document CHEMBL1151426, “Pharmacodynamics of doxycycline in a murine malaria model” (Antimicrob Agents Chemother, 2007).)
